Test results from US12428377B2, “Sodium-hydrogen exchanger 3 inhibitor compounds” (Eli Lilly and Company, priority 2019, dated 2025).
pIC50: −log10 of the molar value.

Target: T1, NPT2b (Homo sapiens, UniProt O95436)
T1 sequence (O95436 1-690): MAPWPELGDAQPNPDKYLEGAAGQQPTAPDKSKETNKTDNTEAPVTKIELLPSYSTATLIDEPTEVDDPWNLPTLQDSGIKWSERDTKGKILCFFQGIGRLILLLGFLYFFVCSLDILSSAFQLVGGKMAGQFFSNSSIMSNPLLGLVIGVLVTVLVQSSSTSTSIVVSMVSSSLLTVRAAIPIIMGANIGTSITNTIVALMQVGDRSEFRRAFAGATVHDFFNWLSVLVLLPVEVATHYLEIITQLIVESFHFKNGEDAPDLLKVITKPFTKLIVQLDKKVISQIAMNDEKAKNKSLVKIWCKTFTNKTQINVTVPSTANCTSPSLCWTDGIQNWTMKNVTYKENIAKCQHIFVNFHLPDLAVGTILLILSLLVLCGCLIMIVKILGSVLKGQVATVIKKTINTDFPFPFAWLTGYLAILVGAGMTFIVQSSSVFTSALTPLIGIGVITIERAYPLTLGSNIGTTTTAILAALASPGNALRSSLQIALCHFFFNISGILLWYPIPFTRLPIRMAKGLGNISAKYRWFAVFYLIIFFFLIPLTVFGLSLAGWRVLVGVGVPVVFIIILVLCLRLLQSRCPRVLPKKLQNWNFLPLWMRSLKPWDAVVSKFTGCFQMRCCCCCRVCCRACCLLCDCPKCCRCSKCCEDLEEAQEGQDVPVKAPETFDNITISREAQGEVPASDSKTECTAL
Assay: NPT2b inhibition (selectivity)

pIC50: 4.23
SMILES: CN1Cc2c(Cl)cc(Cl)cc2[C@H](c2cccc(S(=O)(=O)NCCOCCOCCN/C(=N\C(N)=O)NCCCCN/C(=N/C(N)=O)NCCOCCOCCNS(=O)(=O)c3cccc([C@@H]4CN(C)Cc5c(Cl)cc(Cl)cc54)c3)c2)C1.Cl.Cl [Example 2, [[4-[[N′-Carbamoyl-N-[2-[2-[2-[[3-[(4S)-6,8-dichloro-2-methyl-3,4-dihydro-1H-isoquinolin-4-yl]phenyl]sulfonylamino]ethoxy]ethoxy]ethyl]carbamimidoyl]amino]butylamino]-[2-[2-[2-[[3-[(4S)-6,8-dichloro-2-methyl-3,4-dihydro-1H-isoquinolin-4-yl]phenyl]sulfonylamino]ethoxy]ethoxy]ethylamino]methylene]urea dihydrochloride]
